Measured values reported in US8586369B2, “Ion channel-forming peptides” (The Regents of the University of California, priority 2007, dated 2013).

Assays:
Format in all cases: biochemical
[1] = Monitoring a 1,3-dipolar cycloaddition (click) reaction in situ using single ion channel recordings; settings: 40 pM gramicidazide, 2 mM propargyl sulfonate, 0.5 mM CuSO4
Experimental: Gramicidazide was added to a final concentration of 40 pM to both 4 mL chambers of a stirred lipid bilayer setup comprised of zwitterionic 1,2-diphytanoyl-sn-glycero-3-phosphatidylcholine (DiPhyPC) lipids that separated two compartments containing 20 mM KCl, 0.2 mM HEPES buffer, 2 mM sodium ascorbate (as a reducing agent for Cu^II), and 2 mM propargyl sulfonate. The final pH of this solution was 6.9. CuSO4 was added (to give a final concentration of Cu^II of 0.5 mM) to both chambers of the bilayer setup and recorded the single ion channel activity over time. […] The cycloaddition reaction was monitored at a constant applied potential of +75 mV. […]
Monitoring a 1,3-dipolar cycloaddition (“click”) reaction in situ using single ion channel recordings: About 3 μl, (from a 100 ng mL^−1 solution in ethanol) of gramicidazide was added (to afford a final concentration of 40 pM of gramicidazide) to each compartment of a bilayer setup containing as electrolyte 20 mM KCl and 0.2 mM HEPES buffer. […] This strategy made it possible to observe measured currents that would frequently return to baseline (i.e., current steps separated by no observed channel events). Consequently, a small number of events over time were observed, and thus analyzed the data over a window of time rather than at specific time points. […] For the 4-15 minute time window, we measured 26 total channel events. […]

[2] = Single channel recordings of gA derivatives in planar lipid bilayers (Example 2); settings: 20 mM KCl
Experimental: Formation of Planar Lipid Bilayers: Planar lipid bilayers were formed by the “folding technique.” Briefly, a film (e.g., Teflon®, Eastern Scientific Inc, pore diameter 0.1-0.2 mm) that was pretreated on both sides of the pore with 2 μL of 5% (v/v) hexadecane in pentane. This film was mounted using vacuum grease (Dow Corning, High vacuum grease) to a custom-made Teflon chamber separating two buffer compartments each with a volume capacity of 4 mL. After addition of 1 mL of electrolyte (20 mM KCl buffered with 0.2 mM HEPES pH 7.4 or 140 mM KCl buffered with 10 mM phosphate pH 8.0) to each compartment, lipids were spread at the air-water interface of the electrolyte solution in both compartments. Three additional milliliters of the same electrolyte solution were added to each compartment to raise the liquid level above the aperture in the Teflon film. The bilayers were formed on the pore of the Teflon film by aspirating the electrolyte solution into a 3 mL syringe, followed by dispensing the electrolyte solution back into each compartment.
Ion Channel Measurements: Single channel recordings in “voltage clamp mode” were performed using Ag/AgCl pellet electrodes (Warner Instruments) in each compartment of the bilayer setup. Data acquisition and storage was carried out using custom software in combination with an EPC-7 patch clamp amplifier from Heka (set at a gain of 10 mV pA^−1 and a filter cutoff frequency of 3 kHz). The data acquisition board for the amplifier was set to a sampling frequency of 15 kHz. All current traces shown in the figures were further filtered using a digital Gaussian low-pass filter with a cutoff frequency of 4 Hz.
The analysis of single channel current traces was performed by computing histograms of the currents from the original current versus time traces with ClampFit 9.2 software from Axon Instruments. From these histograms, main current values were extracted by fitting a Gaussian function to the peaks in the histograms. […]

[3] = test system: alkaline phosphatase (AP); experiment: Enzymatic hydrolysis of gA phosphate in the presence of AP monitored by single ion channel recordings
Experimental: To detect a change in single ion channel currents, gA phosphate was added to a final concentration of about 200 pM to both compartments of a planar lipid bilayer platform (FIG. 15) containing a recording electrolyte. AP was added to a final concentration of about 600 nM and the enzymatic conversion of gA phosphate to its hydrolysis product over time was monitored. We estimated the time-dependent conversion of gA phosphate to its hydrolysis product by comparing the fraction of events from gA phosphate to the fraction of events from its hydrolysis product throughout the course of the reaction. […]
Procedure for monitoring the enzymatic hydrolysis of 6 in the presence of AP using single ion channel recordings: For in situ measurements, about 19 μL (from a 100 ng mL-l solution in ethanol) of gA phosphate (to afford a final concentration of 200 pM of 6) was added to each compartment of a bilayer setup containing recording electrolyte. […] Ion channel events were recorded continuously over the course of the reaction. […] Single ion channel events were recorded during a 10 min time window once a day (50-250 events) over the course of 4 days by filling both compartments of the bilayer setup with 4 mL of the solutions with the desired AP concentration. […]

[4] = Single channel conductance of gA phosphate and its hydrolysis product in planar lipid bilayers (Example 3); settings: for single channel conductance (γ): 50 mM CsCl, 1 mM MgCl2, 0.5 mM K2CO3, pH 9.8, slopes of I-V curves
Experimental: Formation of Planar Lipid Bilayers: Planar lipid bilayers were formed by the “folding technique” as previously described. The recording electrolyte was 1 mM MgCl2, 50 mM CsCl buffered with 0.5 mM K2CO3 at pH 9.8. Briefly, we spread a solution containing 25 mg mL^−1 1,2-diphytanoyl-sn-glycero-3-phosphatidylcholine (DiPhyPC) lipids in pentane at the air-water interface of the electrolyte solution in both compartments of the bilayer setup. 3 mL of the total volume of 4 mL of electrolyte solution in each bilayer compartment was aspirated into a syringe, followed by dispensing the electrolyte solution back into each compartment.
Ion Channel Measurements: We performed single channel recordings in “voltage clamp mode” using Ag/AgCl pellet electrodes (Warner Instruments) in each compartment of the bilayer setup. Data acquisition and storage was carried out using custom software in combination with an EPC-7 patch clamp amplifier from Heka (set at a gain of 10 mV pA-1 and a filter cutoff frequency of 3 kHz). The data acquisition board (National Instruments, Austin, Tx) for the amplifier was set to a sampling frequency of 15 kHz. The current traces shown in the FIG. 2 were further filtered using a digital Gaussian low-pass filter with a cutoff frequency of 4 Hz.
Analysis of the single channel current traces was performed by computing histograms of the currents from the original current versus time traces with ClampFit 9.2 software from Axon Instruments. From these histograms we extracted the main current values by fitting a Gaussian function to the peaks in the histograms. All conductance values were obtained from the slopes of I-V curves.

Row | Substance | time after which the click reaction was complete [1] [min] | single channel conductance (γ) ([2]; 0.2 mM HEPES, 2 mM sodium ascorbate, 2 mM propargyl sulfonate, 0.5 mM CuSO4, pH 6.9, pure samples) [pS] | ion channel activity in planar lipid bilayers ([2]; applied potential 100 mV, 0.2 mM HEPES pH 7.4) | time after which almost all recorded ion channel events originated from the hydrolysis product ([3]; 200 pM gA phosphate, 600 nM AP, in situ) [min] | hydrolysis in the absence of AP ([3]; ion channel experiments over the course of 1 h, pH 9.8 recording electrolyte) | single channel conductance (γ) [4] | single channel conductance (γ) ([4]; listed as 6) | single channel conductance (γ) ([4]; listed as phosphorylated derivative) [pS] | factor by which conductance is larger than that of the gA phosphate hydrolysis product ([4]; 125 mV, buffered recording electrolyte)
1 | gramicidazide | ~90 | 3.3±0.1 | retained well-defined ion channel activity |  |  |  |  |  | 
2 | gramicidine A (gA) phosphate [gA phosphate] |  |  |  | 35 | No hydrolysis was observed | ≈ 16 pS | 16.4±0.3 pS and ≈ 16 pS | 16.4±0.3 | 4
